# Assays:
# Assay type in all cases: biochemical
# [1] = test system: Nannochloropsis gaditana BioDA; test: BioDA enzyme activity with DMSO or herbicide in vitro
# From the text: (§1) A pet-24 plasmid containing a DNA sequence encoding each identified variant mutant of BIO3-BIO1 derived from Arabidopsis thaliana from example 5 above, as shown in Table 13 below and as shown in full in SEQ ID NOs: 15 to 155, codon-optimised for expression in E. coli, with an N-terminal 6×His-tag and thrombin cleavage site and under control of a T7 promoter, and was synthesised by Twist Bioscience, in a similar manner to SEQ ID NO:311. These plasmids were then expressed in E. coli BL21 (DE3) bioA with 50 μg/mL kanamycin and 25 μg/mL chloramphenicol selection. Overnight cultures grown at 37° C. were used to inoculate 8×500 mL AIM in shake flasks at a ratio of 1:100. Cultures were grown at 37° C., 200 rpm for 3.5 hours and then overnight at 20° C. Cells were harvested by centrifugation for 30 minutes at 10 000 g. Cells were stored at −80° C. until extraction. 30 g of cell pellet from was thawed in 120 mL of IMAC buffer A (20 mM HEPES pH7.5, 25 mM imidazole, 500 mM sodium chloride, 0.15 mM pyridoxal phosphate, 0.5 mM TCEP, 1× complete Protease Inhibitor Tablet (Roche)). The resuspension was passed through a cell disrupter at 18 000 PSI and centrifuged at 50 000 g for 25 minutes at 4° C. The His-tagged BIO3-BIO1 protein was purified from the extract supernatant on an AKTA avant chromatography system (Cytiva) using a HisTrap FF column and eluted in IMAC buffer B ((20 mM HEPES pH7.5, 500 mM imidazole, 500 mM sodium chloride, 0.15 mM pyridoxal phosphate, 0.5 mM TCEP) followed by SEC using a HiLoad 26/60 Superdex200 column in SEC buffer (25 mM HEPES pH7.5, 150 mM sodium chloride, 0.15 mM pyridoxal phosphate, 0.5 mM TCEP). Protein concentration was measured and calculated using the absorbance at 280 nm. Extracts were diluted 1 in 4 and 10 uL was analysed by SDS PAGE.
# (§2) To measure BIO3-BIO1 mutant enzyme activity in the presence of herbicide, herbicides were incubated with 20 μL of enzyme mix (100 mM EPPS pH 8.6, 0.1 mM pyridoxal phosphate, 0.1 mg/mL BSA, 50 nM BIO3-BIO1 enzyme) for 10 minutes at 20° C. in a well of a 96-well half-area black plate, followed by the addition of 20 μL of substrate mix (final concentration of 100 mM EPPS pH 8.6, 0.1 mM pyridoxal phosphate, 0.1 mg/mL BSA, 100 μM spermidine, 20 μM KAPA, 100 mM NaCO3) and further incubation for 75 minutes at 20° C. The reaction was terminated by the addition of 50 μL of derivatisation mix (final concentration of 250 mM borate NaOH pH 9.4, 3.6 mM o-phthalaldehyde, 7 mM β-mercaptoethanol, 17% (v/v) ethanol, 3.6% (v/v) methanol). The fluorescent product produced by the reaction of DAPA with o-phthalaldehyde and 7 mM β-mercaptoethanol was measured at 470 nm after excitation at 410 nm. The percentage inhibition was calculated as the activity in the presence of one of three concentrations of each herbicide compound A to M (note that the compounds labelled as A to M are identified hereinabove in the relevant section of the description) as a percentage of the activity in DMSO (Table 12 and 13). The percentage activity versus WT was also calculated and is shown in Table 13 and 14 (NT indicates mutation not tested in table 13, note that these mutations are tested at different compound concentrations for compounds L, M and C, and the results are shown in table 14).
# (§3) The activity of various wild-type BioDA and variant enzymes was also tested when treated with DMSO or herbicide in vitro.
# (§4) Protein of Schizosaccharomyces japonicus BioDA (SEQ ID NO:13), Nannochloropsis gaditana BioDA (SEQ ID NO:3), Selaginella moellendorffii BioDA (SEQ ID NO:319), Quercus robur BioDA (SEQ ID NOA11), Ostreococcus tauri BioDA (SEQ ID NO:9), and the variants of Ostreococcus tauri BioDA A374D, F332A and P407A (SEQ ID Nos:321-323) was prepared using the method in Example 6. BioDA enzyme activity in the presence of herbicide or DMSO in vitro for each of the proteins was assayed according to the enzyme assay method above. The results are shown in Table 26 provided below in the “TABLES” section.
# Ostreococcus tauri BioDA = test: as above; details: Ostreococcus tauri BioDAΔMTP
# From the text: as §1, §2, §3, §4
# [2] = test system: Selaginella moellendorffii BioDA; test: as above; details: Selaginella moellendorcffii BioDAΔMTP
# From the text: as §1, §2, §3, §4
# Arabidopsis BioDAΔMTP = molecular target: T1, Arabidopsis BioDAΔMTP (Arabidopsis thaliana, UniProt B0F481); test: BioDA enzyme activity with DMSO or herbicide in vitro (wild-type reference enzyme); details: for % Inhibition relative to DMSO treatment: Arabidopsis BioDAΔMTP (Table 26)
# T1 construct: with the predicted N-terminal mitochondrial transit peptide removed; 6xHis-tag (N); thrombin cleavage site (N); made in house; host or cells: E. coli BL21 (DE3) bioA
# T1 sequence (B0F481 with tags, fused parts or gaps): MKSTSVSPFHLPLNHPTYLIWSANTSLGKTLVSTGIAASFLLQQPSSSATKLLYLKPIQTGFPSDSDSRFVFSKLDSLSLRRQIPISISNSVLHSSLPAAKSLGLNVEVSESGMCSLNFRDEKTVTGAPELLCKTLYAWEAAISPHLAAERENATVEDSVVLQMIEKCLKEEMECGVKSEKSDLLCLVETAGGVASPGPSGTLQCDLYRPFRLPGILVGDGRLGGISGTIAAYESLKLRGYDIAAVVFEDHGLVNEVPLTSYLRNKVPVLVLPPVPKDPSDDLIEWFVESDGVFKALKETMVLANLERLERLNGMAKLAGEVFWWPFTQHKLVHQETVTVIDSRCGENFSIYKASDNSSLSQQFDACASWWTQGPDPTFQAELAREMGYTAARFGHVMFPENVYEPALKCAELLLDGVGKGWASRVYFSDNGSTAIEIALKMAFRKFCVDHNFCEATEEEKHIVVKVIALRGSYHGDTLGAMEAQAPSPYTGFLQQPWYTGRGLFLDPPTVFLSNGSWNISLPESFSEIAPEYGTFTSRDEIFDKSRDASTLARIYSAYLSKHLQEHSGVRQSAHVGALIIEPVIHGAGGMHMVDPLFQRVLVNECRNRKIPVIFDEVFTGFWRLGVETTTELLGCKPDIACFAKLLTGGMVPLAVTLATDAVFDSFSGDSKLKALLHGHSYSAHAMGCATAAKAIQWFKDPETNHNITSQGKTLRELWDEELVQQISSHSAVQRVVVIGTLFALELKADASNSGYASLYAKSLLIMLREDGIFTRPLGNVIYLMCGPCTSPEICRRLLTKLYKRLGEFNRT
# [3] = 31 μM, Arabidopsis (SEQ ID NO 294), spermidine in substrate mix, read-out: % Inhibition relative to DMSO treatment
# [4] = Arabidopsis (SEQ ID NO 294), spermidine in substrate mix, read-out: % Inhibition relative to DMSO treatment
# [5] = 500 μM, Arabidopsis (SEQ ID NO 294), spermidine in substrate mix, read-out: % Inhibition relative to DMSO treatment
compound,measurement,setting,value
"CC(O)C(N)CCCCC(=O)O.Cl (stereo not drawn) [Compound B, [5-carboxy-1-(1-hydroxyethyl)pentyl]ammonium chloride]",% Inhibition relative to DMSO treatment,[1]; 200 μM,92%
same,% Inhibition relative to DMSO treatment,Ostreococcus tauri BioDA; 200 μM,62%
same,% Inhibition relative to DMSO treatment,[2]; 200 μM,64%
same,inhibition at 31 µM,Arabidopsis BioDAΔMTP; [3],79%
same,inhibition at 200 µM,Arabidopsis BioDAΔMTP; [4],96%
same,inhibition at 500 µM,Arabidopsis BioDAΔMTP; [5],96%
"CCn1c(Cn2ccc(C(F)(F)F)n2)cc(=O)c(C(=O)O)c1-c1ccc(Cl)c(Cl)c1 [Compound L, 2-(3,4-dichlorophenyl)-1-ethyl-4-oxo-6-[[3-(trifluoromethyl)pyrazol-1-yl]methyl]pyridine-3-carboxylic acid]",% Inhibition relative to DMSO treatment,[1]; 0.5 μM,6%
same,% Inhibition relative to DMSO treatment,Ostreococcus tauri BioDA; 0.5 μM,5%
same,% Inhibition relative to DMSO treatment,Ostreococcus tauri BioDA; 31 μM,83%
same,% Inhibition relative to DMSO treatment,Ostreococcus tauri BioDA; 500 μM,98%
same,% Inhibition relative to DMSO treatment,[2]; 0.5 μM,9%
same,inhibition at 0.5 µM,Arabidopsis BioDAΔMTP; [4],83%
same,inhibition at 31 µM,Arabidopsis BioDAΔMTP; [3],99%
same,% Inhibition relative to DMSO treatment,Arabidopsis BioDAΔMTP; 31 μM,99%
same,inhibition at 500 µM,Arabidopsis BioDAΔMTP; [5],98%
same,% Inhibition relative to DMSO treatment,Arabidopsis BioDAΔMTP; 500 μM,98%
"CCn1c(C)c(-c2ccc(F)cc2F)c(=O)c(C(=O)O)c1-c1ccc(Cl)c(Cl)c1 [Compound C, 2-(3,4-dichlorophenyl)-5-(2,4-difluorophenyl)-1-ethyl-6-methyl-4-oxo-pyridine-3-carboxylic acid]",% Inhibition relative to DMSO treatment,[1]; 0.5 μM,8%
same,% Inhibition relative to DMSO treatment,Ostreococcus tauri BioDA; 0.5 μM,0%
same,% Inhibition relative to DMSO treatment,[2]; 0.5 μM,9%
same,inhibition at 0.5 µM,Arabidopsis BioDAΔMTP; [4],53%
"CCn1c(C)c(-c2cc(OC(F)(F)F)ccc2Cl)c(=O)c(C(=O)O)c1-c1ccc(Cl)c(Cl)c1 [Compound D, 5-[2-chloro-5-(trifluoromethoxy)phenyl]-2-(3,4-dichlorophenyl)-1-ethyl-6-methyl-4-oxo-pyridine-3-carboxylic acid]",% Inhibition relative to DMSO treatment,[1]; 0.5 μM,14%
same,% Inhibition relative to DMSO treatment,Ostreococcus tauri BioDA; 0.5 μM,0%
same,% Inhibition relative to DMSO treatment,Ostreococcus tauri BioDA; 5 μM,36%
same,% Inhibition relative to DMSO treatment,[2]; 0.5 μM,75%
same,inhibition at 0.5 µM,Arabidopsis BioDAΔMTP; [4],95%
"CCOC(=O)c1nn(-c2ccc3c(c2)OC(F)(F)C(F)(F)O3)c2cccc(C(C)=O)c2c1=O [Compound A, ethyl 5-acetyl-4-oxo-1-(2,2,3,3-tetrafluoro-1,4-benzodioxin-6-yl)cinnoline-3-carboxylate]",% Inhibition relative to DMSO treatment,[1]; 25 μM,5%
same,% Inhibition relative to DMSO treatment,Ostreococcus tauri BioDA; 25 μM,0%
same,% Inhibition relative to DMSO treatment,[2]; 25 μM,25%
same,inhibition at 25 µM,"Arabidopsis BioDAΔMTP; 25 μM, Arabidopsis (SEQ ID NO 294), spermidine in substrate mix, read-out: % Inhibition relative to DMSO treatment",96%
"C[C@@H](N)COc1cccc(C(=O)O)n1.Cl.Cl [Compound E, [(1R)-2-(6-carboxypyridin-1-ium-2-yl)oxy-1-methyl-ethyl]ammonium dichloride]",% Inhibition relative to DMSO treatment,[1]; 200 μM,66%
same,% Inhibition relative to DMSO treatment,Ostreococcus tauri BioDA; 200 μM,53%
same,% Inhibition relative to DMSO treatment,[2]; 200 μM,69%
same,inhibition at 200 µM,Arabidopsis BioDAΔMTP; [4],96%
"CCn1c(-c2ccc(Cl)c(Cl)c2)c(C(=O)O)c(=O)c2cc(F)ccc21 [Compound M, 2-(3,4-dichlorophenyl)-1-ethyl-6-fluoro-4-oxo-quinoline-3-carboxylic acid]",% Inhibition relative to DMSO treatment,[1]; 0.5 μM,3%
same,% Inhibition relative to DMSO treatment,Ostreococcus tauri BioDA; 0.5 μM,0%
same,% Inhibition relative to DMSO treatment,Ostreococcus tauri BioDA; 31 μM,45%
same,% Inhibition relative to DMSO treatment,Ostreococcus tauri BioDA; 500 μM,92%
same,% Inhibition relative to DMSO treatment,[2]; 0.5 μM,0%
same,inhibition at 0.5 µM,Arabidopsis BioDAΔMTP; [4],45%

# Reference: US20260226493A1, “HERBICIDE RESISTANT PLANTS” (SYNGENTA CROP PROTECTION AG, priority 2023, published 2026)
